Source: US20230119479A1, “A HISTONE DEACETYLASE INHIBITOR HAVING A NITROGEN-CONTAINING AROMATIC HETEROCYCLYL GROUP” (SHIONOGI & CO., LTD., priority 2019, published 2023)

What follows are compounds tested against T1, HDAC2 Human recombinant C-terminal FLAG-tag (Homo sapiens, UniProt Q92769) (assay: Measurement of HDAC2 enzyme inhibitory activity (HTRF)). Details: recombinant HDAC2, H3K9ac peptide, 3 hours room temperature; read-out: HDAC2 IC50.
T1 construct: FLAG (C); purchased BPS Bioscience 50052
T1 sequence (Q92769 whole entry): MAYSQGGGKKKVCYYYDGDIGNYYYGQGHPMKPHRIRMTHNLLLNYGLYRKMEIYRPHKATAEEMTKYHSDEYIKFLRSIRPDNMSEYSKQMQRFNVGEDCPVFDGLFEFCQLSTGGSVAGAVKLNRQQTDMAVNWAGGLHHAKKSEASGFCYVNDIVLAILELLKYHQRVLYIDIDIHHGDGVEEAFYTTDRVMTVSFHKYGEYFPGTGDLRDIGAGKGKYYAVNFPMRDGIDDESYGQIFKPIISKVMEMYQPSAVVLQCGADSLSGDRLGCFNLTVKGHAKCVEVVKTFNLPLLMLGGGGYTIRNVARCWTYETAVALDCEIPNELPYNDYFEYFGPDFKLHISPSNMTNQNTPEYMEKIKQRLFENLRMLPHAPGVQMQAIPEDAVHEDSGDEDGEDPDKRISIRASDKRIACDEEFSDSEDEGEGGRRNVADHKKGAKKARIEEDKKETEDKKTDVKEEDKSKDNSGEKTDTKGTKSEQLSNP
Assay type: biochemical
Method: Test Example 1: Measurement of HDAC2 Enzyme Inhibitory Activity
The HDAC2 enzyme inhibitory activity was measured by the method described in the following test example.
To each well of a 384-well plate (Corning, 4514), DMSO solution of the test compound was dispensed at 50 nL/well from a final concentration of 99 μM to 8 points (n=2) in the 3-fold dilution series using Echo555 (Beckman Coulter). 2.5 μl of 0.005 mg/mL recombinant enzyme HDAC2 (HDAC2 Human recombinant C-terminal FLAG-tag, BPS Bioscience, 50052) was added to each well, 2.5 μl of 0.6 μM H3K9ac peptide (Lys(Ac)9-Histone H3 (1-21)-GGK(Biotin), AnaSpec, 64361) was added, mixed, and reacted in a wet box at room temperature for 3 hours. 50 mM Tris HCL pH8.0, 137 mM sodium chloride, 2.7 mM potassium chloride, 1 mM magnesium chloride, 0.01% Tween20, and 0.1% BSA which were diluted with ultrapure water were used as a reaction buffer at this time. After the reaction, 5 μL of 10 μM SAHA (suberoylanilide hydroxamic acid) as a reaction terminator and the 5 μL of a mixture of 2.5 ng of H3K9me0 antibody (ActiveMotif, 61399) labeled in-house with europium cryptate (Cisbio, 65EUSABA) and 125 nM streptavidin-XL665 (Cisbio, 610SAXLA) as an HTRF (time-resolved fluorescence) reagent were added to each well, mixed, and allowed to stand in a wet box at room temperature for reaction. A detection buffer used at this time was 50 mM Tris HCL pH 8.0, 0.8 M potassium fluoride, and 0.1% BSA which were diluted with ultrapure water. After reacting for 2 hours or more, HTRF was measured using a multi-plate reader such as SpectraMax Paradigm (MOLECULAR DEVICE) or RUBYstar (BMG LABTECH). Ratio (665 nm/615-620 nm×10000) was calculated from the fluorescence values of two wavelengths, 615-620 nm and 665 nm, which were excited at 320-340 nm, and the energy transition was obtained.

Compound | IC50
Nc1ccc(-c2cncs2)cc1NC(=O)c1ccc2nccn2n1 [Compound I-065] | 330 nM
Nc1ccc(-c2cncs2)cc1NC(=O)c1cc2ccccc2cn1 [Compound I-066] | 110 nM
Nc1ccc(-c2cncs2)cc1NC(=O)c1cc2c(cn1)OCCC2 [Compound I-067] | 120 nM
Nc1ccc(-c2ccc(F)nc2)cc1NC(=O)c1cc2ccncc2cn1 [Compound I-068] | 140 nM
N#Cc1ccc(C(=O)Nc2cc(-c3cncs3)ccc2N)nc1 [Compound I-069] | 160 nM
Nc1ccc(-c2cncs2)cc1NC(=O)c1cc2c(cn1)OC(F)(F)CO2 [Compound I-070] | 240 nM
Nc1ccc(-c2cncs2)cc1NC(=O)c1ccc(Cl)cn1 [Compound I-071] | 160 nM
Nc1ccc(-c2cncs2)cc1NC(=O)c1cc(Cl)c(Cl)cn1 [Compound I-072] | 480 nM
Nc1ccc(-c2cncs2)cc1NC(=O)c1cc2c(cn1)OCCO2 [Compound I-073] | 120 nM
Nc1ccc(-c2cncs2)cc1NC(=O)c1cc2c(cn1)OC(F)(F)O2 [Compound I-074] | 270 nM
Cn1cc(-c2cnc(C(=O)Nc3nc(-c4ccc(F)nc4)ccc3N)cn2)cn1 [Compound I-079] | 480 nM
Nc1ccc(-c2cncs2)cc1NC(=O)c1ccc2[nH]ccc2n1 [Compound I-081] | 280 nM
Nc1ccc(-c2cncs2)cc1NC(=O)c1ccc2c(n1)CCCC2 [Compound I-082] | 340 nM
Nc1ccc(-c2cncs2)cc1NC(=O)c1ccc2c(n1)CCC2 [Compound I-083] | 160 nM
Cn1cc(-c2ccc(C(=O)Nc3cc(-c4ccon4)ccc3N)nc2)cn1 [Compound I-084] | 310 nM
Nc1ccc(-c2ccc(F)nc2)cc1NC(=O)c1cnc2[nH]ccc2n1 [Compound I-086] | 180 nM
Nc1ccc(-c2ccc(F)nc2)cc1NC(=O)c1ccc(F)cn1 [Compound I-089] | 400 nM
Nc1ccc(-c2ccc(F)nc2)cc1NC(=O)c1ccc(Cl)cn1 [Compound I-090] | 290 nM
CC#Cc1ccc(C(=O)Nc2cc(-c3cncs3)ccc2N)nc1 [Compound I-094] | 230 nM
C#Cc1ccc(C(=O)Nc2cc(-c3ccc(F)nc3)ccc2N)nc1 [Compound I-096] | 270 nM
Nc1ccc(-c2ccc(F)nc2)cc1NC(=O)c1cc2c(cn1)OCCO2 [Compound I-097] | 160 nM
Cn1cc(-c2ccc(N)c(NC(=O)c3cc4c(cn3)OCCO4)c2)cn1 [Compound I-098] | 240 nM
COc1cnc(C(=O)Nc2cc(-c3cncs3)ccc2N)cn1 [Compound I-099] | 72 nM
Nc1ccc(-c2cncs2)cc1NC(=O)c1cnc(OCF)cn1 [Compound I-100] | 100 nM
Nc1ccc(-c2cncs2)cc1NC(=O)c1ccc(C2CC2)cn1 [Compound I-101] | 92 nM
Nc1ccc(-c2ccc(F)nc2)cc1NC(=O)c1ccc(CN2CCCC2=O)cn1 [Compound I-104] | 85 nM

Compound | IC50
Nc1ccc(-c2ccc(F)nc2)cc1NC(=O)c1ccc(CN2CCCCC2=O)cn1 [Compound I-108] | 84 nM
N#Cc1ccnc(C(=O)Nc2cc(-c3cncs3)ccc2N)c1 [Compound I-109] | 190 nM
Nc1ccc(-c2ccc(F)nc2)cc1NC(=O)c1ccc(C2CC2)cn1 [Compound I-111] | 150 nM
Nc1ccc(-c2ccc(F)nc2)cc1NC(=O)c1ccccn1 [Compound I-113] | 320 nM
Nc1ccc(-c2ccc(F)nc2)cc1NC(=O)c1cnccn1 [Compound I-114] | 260 nM
Nc1ccc(-c2ccc(F)nc2)cc1NC(=O)c1cccnn1 [Compound I-115] | 440 nM
COc1cnc(C(=O)Nc2cc(-c3ccc(F)nc3)ccc2N)cn1 [Compound I-120] | 240 nM
Cc1cnc(C(=O)Nc2cc(-c3ccc(F)nc3)ccc2N)cn1 [Compound I-123] | 140 nM
Nc1ccc(-c2ccc(F)nc2)cc1NC(=O)c1cnc(-n2cncn2)cn1 [Compound I-128] | 180 nM
C=Cc1ccc(C(=O)Nc2cc(-c3ccc(F)nc3)ccc2N)nc1 [Compound I-131] | 180 nM
Cc1nnc(-c2ccc(C(=O)Nc3cc(-c4ccc(F)nc4)ccc3N)nc2)o1 [Compound I-133] | 110 nM
Nc1ccc(-c2ccc(F)nc2)cc1NC(=O)c1cnc(CF)cn1 [Compound I-134] | 210 nM
Nc1ccc(-c2ccc(F)nc2)cc1NC(=O)c1ccc(OCC(F)(F)F)cn1 [Compound I-135] | 470 nM
Cc1cnc(C(=O)Nc2cc(-c3cnn(C)c3)ccc2N)cn1 [Compound I-138] | 200 nM
COc1ccc(C(=O)Nc2cc(-c3cnn(C)c3)ccc2N)nc1 [Compound I-140] | 220 nM
Nc1ccc(-c2ccc(F)nc2)cc1NC(=O)c1ccc(OC(F)F)cn1 [Compound I-143] | 390 nM
Nc1ccc(-c2ccc(F)nc2)cc1NC(=O)c1cnc(C(F)F)cn1 [Compound I-145] | 340 nM
Cn1cc(-c2ccc(N)c(NC(=O)c3cnc(OC(F)F)cn3)c2)cn1 [Compound I-146] | 380 nM
Cn1cc(-c2ccc(N)c(NC(=O)c3cnc(CF)cn3)c2)cn1 [Compound I-147] | 290 nM
COc1ccnc(C(=O)Nc2cc(-c3ccc(F)nc3)ccc2N)c1 [Compound I-150] | 310 nM
Nc1ccc(-c2ccc(F)nc2)cc1NC(=O)c1cnc(OCC(F)F)cn1 [Compound I-151] | 220 nM
CC(C)c1ccc(C(=O)Nc2cc(-c3cnn(C)c3)ccc2N)nc1 [Compound I-153] | 210 nM
Cc1ccc(C(=O)Nc2cc(-c3ccc(F)nc3)ccc2N)nc1 [Compound I-154] | 120 nM
Cc1ccc(C(=O)Nc2cc(-c3cnn(C)c3)ccc2N)nc1 [Compound I-155] | 220 nM
CC(C)Oc1ccc(C(=O)Nc2cc(-c3ccc(F)nc3)ccc2N)nc1 [Compound I-162] | 200 nM
CC(C)Oc1ccc(C(=O)Nc2cc(-c3cnn(C)c3)ccc2N)nc1 [Compound I-163] | 210 nM

Compound | IC50
CCOc1ccc(C(=O)Nc2cc(-c3ccc(F)nc3)ccc2N)nc1 [Compound I-164] | 210 nM
CCOc1ccc(C(=O)Nc2cc(-c3cnn(C)c3)ccc2N)nc1 [Compound I-165] | 200 nM
Cc1cnc(C(=O)Nc2nc(-n3cccc3)ccc2N)cn1 [Compound I-171] | 430 nM
CCc1ccc(C(=O)Nc2cc(-c3ccc(F)nc3)ccc2N)nc1 [Compound I-174] | 120 nM
CCc1ccc(C(=O)Nc2cc(-c3cnn(C)c3)ccc2N)nc1 [Compound I-175] | 170 nM
CN(C)c1ccc(C(=O)Nc2cc(-c3ccc(F)nc3)ccc2N)nc1 [Compound I-176] | 79 nM
CN(C)c1cnc(C(=O)Nc2cc(-c3ccc(F)nc3)ccc2N)cn1 [Compound I-178] | 46 nM
COCCOc1ccc(C(=O)Nc2cc(-c3cnn(C)c3)ccc2N)nc1 [Compound I-180] | 210 nM
CC(C)c1ccc(C(=O)Nc2cc(-c3ccc(F)nc3)ccc2N)nc1 [Compound I-181] | 140 nM
COCCOc1ccc(C(=O)Nc2nc(-n3cccc3)ccc2N)nc1 [Compound I-182] | 350 nM
Nc1ccc(-c2ccc(F)nc2)cc1NC(=O)c1ccc2c(n1)OCO2 [Compound I-183] | 48 nM
Nc1ccc(-c2ccc(F)nc2)cc1NC(=O)c1ccc2c(n1)OCC(=O)N2 [Compound I-184] | 49 nM
COC(=O)c1ccc(C(=O)Nc2cc(-c3ccc(F)nc3)ccc2N)nc1 [Compound I-185] | 140 nM
Nc1ccc(-c2ccc(F)nc2)cc1NC(=O)c1cc(F)ccn1 [Compound I-186] | 490 nM
CC(C)(C)c1ccc(C(=O)Nc2cc(-c3ccc(F)nc3)ccc2N)nc1 [Compound I-191] | 240 nM
Nc1ccc(-c2ccc(F)nc2)cc1NC(=O)c1ccc(CO)cn1 [Compound I-192] | 220 nM
CC(C)(O)c1ccc(C(=O)Nc2cc(-c3ccc(F)nc3)ccc2N)nc1 [Compound I-193] | 170 nM
Nc1ccc(-c2cncs2)cc1NC(=O)c1noc2ccccc12 [Compound I-195] | 290 nM
Cn1cc(-c2cc(C(=O)Nc3cc(-c4cncs4)ccc3N)no2)cn1 [Compound I-196] | 55 nM
Cn1cc(-c2ccc(N)c(NC(=O)c3cc(-c4cnn(C)c4)on3)c2)cn1 [Compound I-197] | 240 nM
Cn1cccc1-c1cc(C(=O)Nc2cc(-c3cncs3)ccc2N)no1 [Compound I-199] | 200 nM
Cn1cc(-c2ccc(N)c(NC(=O)c3ccc(C(C)(C)C)cn3)c2)cn1 [Compound I-201] | 260 nM
CN(C)c1cnc(C(=O)Nc2cc(-c3cnco3)ccc2N)cn1 [Compound I-202] | 60 nM
CC(C)(C)c1cnc(C(=O)Nc2cc(-c3ccc(F)nc3)ccc2N)cn1 [Compound I-203] | 240 nM
